{"source": "patent US20240417404A1", "about": "“CRYSTALLINE FORMS OF N-[4-[4-(4-MORPHOLINYL)-7H-PYRROLO[2,3-d]PYRIMIDIN-6-YL]PHENYL]-4-[[3(R)-[(1-OXO-2-PROPEN-1-YL)AMINO]-1-[sequence]]METHYL]-2-PYRIDINECARBOXAMIDE AS IRREVERSIBLE INHIBITORS OF MENIN-MLL INTERACTION” (BIOMEA FUSION, INC., priority 2023, published 2024)", "key": {"[1]": {"assay": "Solubility of Compound A crystalline forms in aqueous buffers and biorelevant media", "details": "aqueous buffer, solubility, water, pH 4.5 acetate buffer, pH 6.8 phosphate buffer, pH 5.0 FeSSIF-v1 and pH 6.5 FaSSIF-v1"}, "[2]": {"assay": "Hygroscopicity (water absorption versus relative humidity)", "assay_type": "physicochemical", "details": "from 40% RH to 70% RH at 25° C."}, "[3]": {"assay": "Solid form stability (XRPD after storage, conversion in MeOH/water, thermal)", "assay_type": "physicochemical", "protocol": "X-ray powder diffraction patterns were collected on a Bruker AXS C2 GADDS or Bruker AXS D8 diffractometer.\nX-ray Powder Diffraction patterns were collected on a Bruker AXS C2 GADDS diffractometer using Cu Kα radiation (40 kV, 40 mA), automated XYZ stage, laser video microscope for auto-sample positioning, and a HiStar 2-dimensional area detector. X-ray optics consists of a single Göbel multilayer mirror coupled with a pinhole collimator of 0.3 mm. A weekly performance check is carried out using a certified standard NIST 1976 Corundum (flat plate). The beam divergence (i.e., the effective size of the X-ray beam on the sample) was approximately 4 mm. A θ-θ continuous scan mode was employed with a sample—detector distance of 20 cm which gives an effective 2θ range of 3.2°-29.7°. Typically the sample would be exposed to the X-ray beam for 120 seconds. The software used for data collection was GADDS for WNT 4.1.16 and the data were analyzed and presented using Diffrac Plus EVA v11.0.0.2 or v13.0.0.2.\nX-ray Powder Diffraction patterns were collected on a Bruker D8 diffractometer using Cu Kα radiation (40 kV, 40 mA), θ-2θ goniometer, and divergence of V4 and receiving slits, a Ge monochromator and a Lynxeye detector. The instrument is performance checked using a certified Corundum standard (NIST 1976). The software used for data collection was Diffrac Plus XRD Commander v2.5.0 and the data were analysed and presented using Diffrac Plus EVA v11.0.0.2 or v13.0.0.2. Samples were run under ambient conditions as flat plate specimens using powder as received. The sample was gently packed into a cavity cut into a polished, zero-background (510) silicon wafer. The sample was rotated via its own plane during analysis. The details of the data collection are: • Angular range: 2 to 42 02θ • Step size: 0.05 02θ • Collection time: 0.5 s/step"}, "[4]": {"assay": "physchem", "details": "pH 4.5, aqueous buffer, observed aqueous solubility"}}}
{"smiles": "C=CC(=O)N[C@@H]1CCCN(Cc2ccnc(C(=O)Nc3ccc(-c4cc5c(N6CCOCC6)ncnc5[nH]4)cc3)c2)C1", "note": "[Form K, N-[4-[4-(4-morpholinyl)-7H-pyrrolo[2,3-d]pyrimidin-6-yl]phenyl]-4-[[3(R)-[(1-oxo-2-propen-1-yl)amino]-1-piperidinyl]methyl]-2-pyridinecarboxamide]", "values": [{"measurement": "solubility", "setting": "[1]", "result": "< 35", "unit": "µg/mL"}, {"measurement": "observed hygroscopicity and absorption of water", "setting": "[2]", "result": "about 2.1%"}, {"measurement": "XRPD pattern post storage", "setting": "[3]; closed container at 60° C. and 75% RH for at least a week", "result": "substantially the same X-ray powder diffraction (XRPD) pattern"}, {"measurement": "XRPD pattern post storage", "setting": "[3]; open container at 25° C. and 92% RH for at least a week", "result": "substantially the same X-ray powder diffraction (XRPD) pattern"}, {"measurement": "XRPD pattern post storage", "setting": "[3]; open container at 40° C. and 75% RH for at least a week", "result": "substantially the same X-ray powder diffraction (XRPD) pattern"}, {"measurement": "Stability", "setting": "[3]; polymorph stability, K converted into Pattern D in MeOH/water mixture (water activity from 0 to 1), listed as K", "result": "Low-Converted into"}, {"measurement": "Stability (thermal)", "setting": "[3]; thermal", "result": "But thermally very stable"}, {"measurement": "solubility", "setting": "[4]", "result": "~4", "unit": "µg/mL"}]}
